Assay results from publication PMC2254147, “Novel Triazine JPC-2067-B Inhibits Toxoplasma gondii In Vitro and In Vivo” (PLoS Neglected Tropical Diseases, 2008).
pIC50: −log10 of the molar value. Entries after “also recorded” stand apart in the source; their conditions may differ. Where two headings read alike, the source gives them in different places.

Assays:
[1] = target: PfDHFR (Plasmodium falciparum, UniProt Q8I1R6); test: Plate reader DHFR assay, recombinant P. falciparum DHFR; type: biochemical
Chain of PfDHFR (Q8I1R6 entry or part of it): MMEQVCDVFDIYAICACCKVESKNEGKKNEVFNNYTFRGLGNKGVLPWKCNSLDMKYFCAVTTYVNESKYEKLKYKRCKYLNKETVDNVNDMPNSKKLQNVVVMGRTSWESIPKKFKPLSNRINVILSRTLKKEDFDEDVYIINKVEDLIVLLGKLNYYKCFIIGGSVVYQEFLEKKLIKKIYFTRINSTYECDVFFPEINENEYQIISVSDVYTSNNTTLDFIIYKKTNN
Excerpt: DHFR from T. gondii prepared as above was also directly compared to purified recombinant P. falciparum DHFR (pfDHFR) and purified recombinant human DHFR (hDHFR). The hDHFR was from pDFR plasmid. The enzyme was purified following ammonium sulfate precipitation, methotrexate:agarose affinity chromatography, and finally a Superdex 200 size exclusion column. The pfDHFR isolation methods were those reported previously,[44]. […] The same buffer as used in the other assays comparing T. gondii DHFR with DHFRs from rat liver P. carinii and M. avium intracellulare was used but the maximal activity, temperature, and length of observation were adjusted for assays on the specific plate reader. […] The reaction was setup at 23°C, the plate loaded, and the OD340 recorded at 20 second intervals for 10 minutes. The first 8 minutes were used to generate linear fit slopes in Excel. […] Results are expressed as the percent of control activity versus log concentration of inhibitor. Prism 5.0 was used to generate curves from 12 different concentrations of inhibitor using a non-linear fit method.

[2] = test system: human foreskin fibroblasts (HFF); test: Toxicity for host cells, 3H thymidine incorporation by non-confluent HFF; type: cell-based; conditions: increasing concentrations, tested concomitantly with T. gondii
[3] = test system: tester strains TA97, TA98, TA100, TA102 and TA1535; test: Ames Test with and without microsomal activation
Protocol: A 42-day toxicology study in CD-1 mice at doses up to 98 mg/kg evaluating well-being, weight gain, and histopathology was performed. […] 7.5 mg/kg was established as the NOAEL (No Observed Adverse Effect Level). JPC-2056 and JPC-2067 were assayed in the Ames Test with and without microsomal activation with tester strains TA97, TA98, TA100, TA102 and TA1535.

[4] = test system: T. gondii tachyzoites (RH strain); test: Murine toxoplasmosis, i.p. JPC-2067-B, peritoneal parasite burden; type: in vivo, mice (outbred Swiss Webster)
Protocol: Tachyzoites also were used to infect mice. Outbred Swiss Webster mice were bred in our specific pathogen free colony. When they were approximately 30 g, they received 10,000 RH strain tachyzoites intra-peritoneally (i.p.); numbers of parasites present in peritoneal fluid were counted four days later as described,[13]. Mice were maintained and utilized in accordance with IACUC and NIH guidelines and approvals. JPC-2067-B was administered parenterally. In initial studies, this was given 15 minutes after i.p. infection and then each day for four days(1.25 mg/kg/day). […] Control mice received 1% DMSO in PBS. For these parenterally treated mice, female mice received a dose of 1.25 mg/kg/day of JPC-2067-B, administered i.p. for the next 3 days. Control mice received an equivalent amount of DMSO (1%) in 1× PBS. In a separate experiment, DMSO at this concentration was shown not to modify subsequent parasite numbers when compared with i.p. inoculation of PBS. […] In contrast, infected control mice appeared ill, with ruffled fur and hunched posture. […] These differences between control and treated mice were statistically significant (p<0.05).

[5] = test system: Tachyzoites of the RH strain of T. gondii; test: T. gondii tachyzoite growth in human foreskin fibroblasts, 3H uracil uptake and microscopy; type: cell-based; conditions: Toxoplasma gondii, Fibroblast, RH strain tachyzoites in HFF, 3H uracil uptake after four days in culture
Protocol: Tachyzoites of the RH strain of T. gondii were passaged in human foreskin fibroblasts (HFF). They were used to infect fibroblasts to determine antimicrobial effects of candidate compounds. Outcome was assessed with microscopy and uracil uptake after four days in culture as described,[12],[13]. Briefly, for testing of inhibitors in vitro against T. gondii tachyzoites, four-day old confluent cultures of human foreskin fibroblasts (HFF) were infected with 10^3 tachyzoites and cultured for 1 hour to allow parasite invasion. Inhibitor was added and cells cultured for 3 days. They were supplemented with ^3H uracil and incubation extended for a further day, whereupon uracil incorporation into cells and thus parasite growth were assessed by liquid scintillation counting,[12],[13]. Studies were performed with inhibitors as described in [8],[12],[13].
For in vitro studies, a stock solution of JPC-2067-B was initially dissolved in 100% dimethyl sulfoxide (DMSO) and then diluted in complete tissue culture medium (IMDM-C) [IMDM with NaHCO3 and 25 mM Hepes (Cambrex Bio Science, Walkersville, MD), 10% fetal bovine serum (Gibco, Grand Island, N.Y.), 1× antibiotic-antimycotic solution (Cellgro, Mediatech), and 2 mM L-glutamine (Gibco). Working concentrations of JPC-2067-B were made using IMDM-C. Concentrations measured ranged from 10 to 100 nM. […]

[6] = target: T1, Pc DHFR (Pneumocystis carinii, UniProt P16184); test: Spectrophotometric DHFR assay, Pneumocystis carinii DHFR; type: biochemical; conditions: 37°C; (95% confidence limits); read-out: Pc DHFR IC50
T1 construct: made in house; host or cells: Escherichia coli
T1 sequence (P16184 1-206): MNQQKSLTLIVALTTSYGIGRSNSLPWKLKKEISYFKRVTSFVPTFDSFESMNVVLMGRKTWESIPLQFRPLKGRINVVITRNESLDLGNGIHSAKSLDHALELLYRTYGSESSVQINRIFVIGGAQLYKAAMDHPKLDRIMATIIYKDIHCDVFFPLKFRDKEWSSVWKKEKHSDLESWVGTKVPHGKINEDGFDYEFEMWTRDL
Excerpt: DHFR from Pneumocystis carinii was produced as the recombinant enzyme expressed in Escherichia coli. […] DHFR from T. gondii was isolated directly from RH strain T. gondii grown in culture on Chinese hamster ovary cells lacking DHFR (CHO/dhfr^-, American Type Culture Collection 3952 CL). Organisms were introduced into a confluent monolayer and harvested when the mammalian cells were lysed. The 100,000× g supernate was stored in liquid nitrogen.
The spectrophotometric assay for DHFR was optimized for temperature and concentration of substrate and cofactor for each enzyme. The standard assay contained Na phosphate buffer pH 7.4 (40.7 mM), 2-mercaptoethanol (8.9 mM), NADPH (0.117 mM), dihydrofolic acid (0.09 mM), KCL (150 mM), and sufficient enzyme to produce a change in OD340 of 0.035/minute at 37°C. The reaction was continuously recorded for 3 minutes. […] The low background activity in the absence of dihydrofolic acid was subtracted from all rates.
DHFR was assayed with several concentrations of inhibitor to produce rates ranging from 1 to 90% of the uninhibited rate. At least three concentrations were required for calculation; most curves contained five concentrations.

CC1(C)N=C(N)N=C(N)N1OCCCOc1ccc(OC(F)(F)F)cc1Cl [JPC-2067-B, 4,6-diamino-1,2-dihydro-2,2-dimethyl-1-(3′(2-chloro-, 4-trifluoromethoxyphenoxy)propyloxy)-1,3,5-triazine]
pIC50 ([1]; recombinant, 23°C, (95% Confidence Intervals), read-out: PfDHFR IC50): 8.41 | pIC50 ([1]; text to Figure 5 and Table 2, read-out: IC50 for P. falciparum DHFR): 8.41 | Toxicity for host cells, uptake of tritiated thymidine by nonconfluent fibroblasts [2]: no toxic effect on host cells; also recorded: no toxicity | Ames Test, with and without microsomal activation [3]: No activity | Ames w/o Activation [3]: Not Active ^* | Ames with Activation [3]: Not Active ^* | Intraperitoneal parasite numbers ([4]; 1.25 mg/kg/day i.p., 10,000 RH tachyzoites i.p., fifth day after injection of parasites, p<0.05): reduced by two logs | Appearance of treated mice ([4]; 1.25 mg/kg/day i.p., 4 days after infection): sleek and active | pIC50 [5]: 7.70 | IC90 ([5]; read-out: IC90, T. gondii tachyzoites in tissue culture): 50 nM | pIC50 [6]: 8.41
